Measurements taken from patent US7645752B2, “Sulfonyl substituted 1H-indoles as ligands for the 5-hydroxytryptamine receptors” (Wyeth LLC, priority 2006, dated 2010).
Structures can show the parent of a compound that is named as a salt.

melting point | Compound
250 to 255 °C | O=S(=O)(c1ccccc1)c1c[nH]c2ccc(CCN3CCOCC3)cc12 (as salt: hydrochloride) [Example 11, 5-(2-morpholin-4-ylethyl)-3-(phenylsulfonyl)-1H-indole]
165 to 166 °C (dec.) | CCN(CC)CCc1cccc2c(S(=O)(=O)c3ccccc3)c[nH]c12 (as salt: hydrochloride) [Example 25, N,N-diethyl-N-{2-[3-(phenylsulfonyl)-1H-indol-7-yl]ethyl}amine]
185 to 187 °C | CC(C)NCCc1cccc2[nH]cc(S(=O)(=O)c3ccccc3)c12 (as salt: hydrochloride) [Example 35, N-{2-[3-(phenylsulfonyl)-1H-indol-4-yl]ethyl}propan-2-amine]
215 to 220 °C | O=S(=O)(c1ccccc1)c1c[nH]c2ccc(CCNCc3ccccc3)cc12 (as salt: hydrochloride) [Example 6, N-benzyl-N-{2-[3-(phenylsulfonyl)-1H-indol-5-yl]ethyl}amine]
275 °C | CC(NCCc1cccc2[nH]cc(S(=O)(=O)c3ccccc3)c12)C(C)(C)C (stereo not shown) (as salt: hydrochloride) [Example 46, N-{2-[3-(phenylsulfonyl)-1H-indol-4-yl]ethyl}-N-(1,2,2-trimethylpropyl)amine]
164 to 165 °C | O=S(=O)(c1ccccc1)c1c[nH]c2cccc(CCN3CCOCC3)c12 (as salt: hydrochloride) [Example 45, 4-(2-morpholin-4-ylethyl)-3-(phenylsulfonyl)-1H-indole]
168 to 170 °C | CNCCc1cccc2[nH]cc(S(=O)(=O)c3ccccc3)c12 (as salt: hydrochloride) [Example 32, N-methyl-N-{2-[3-(phenylsulfonyl)-1H-indol-4-yl]ethyl}amine]
215 to 218 °C (dec.) | CCN(C)CCc1cccc2c(S(=O)(=O)c3ccccc3)c[nH]c12 (as salt: hydrochloride) [Example 24, N-ethyl-N-methyl-N-{2-[3-(phenylsulfonyl)-1H-indol-7-yl]ethyl}amine]
205 to 208 °C (dec.) | CN(C)CCc1cccc2c(S(=O)(=O)c3ccccc3)c[nH]c12 (as salt: hydrochloride) [Example 18, N,N-dimethyl-N-{2-[3-(phenylsulfonyl)-1H-indol-7-yl]ethyl}amine]
225 to 228 °C | CCNCCc1cccc2[nH]cc(S(=O)(=O)c3ccccc3)c12 (as salt: hydrochloride) [Example 33, N-ethyl-N-{2-[3-(phenylsulfonyl)-1H-indol-4-yl]ethyl}amine]
260 to 262 °C | CCCNCCc1cccc2c(S(=O)(=O)c3ccccc3)c[nH]c12 (as salt: hydrochloride) [Example 20, N-{2-[3-(phenylsulfonyl)-1H-indol-7-yl]ethyl}-N-propylamine]
178 °C | NCCc1ccc2c(S(=O)(=O)c3ccccc3)c[nH]c2c1 (as salt: hydrochloride) [Example 109, {2-[3-(phenylsulfonyl)-1H-indol-6-yl]ethyl}amine]
190 °C | O=S(=O)(c1ccccc1)c1c[nH]c2c(CCN3CCNCC3)cccc12 (as salt: hydrochloride) [Example 30, 3-(phenylsulfonyl)-7-(2-piperazin-1-ylethyl)-1H-indole]
122 to 125 °C | NCCc1cccc2[nH]cc(S(=O)(=O)c3cccc(F)c3)c12 (as salt: hydrochloride) [Example 85, {2-[3-(3-fluorophenylsulfonyl)-1H-indol-4-yl]ethyl}amine]
203 °C | CCN(C)CCc1ccc2[nH]cc(S(=O)(=O)c3ccccc3)c2c1 (as salt: hydrochloride) [Example 7, N-ethyl-N-methyl-N-{2-[3-(phenylsulfonyl)-1H-indol-5-yl]ethyl}amine]
246 to 248 °C (dec.) | O=S(=O)(c1ccccc1)c1c[nH]c2c(CCN3CCOCC3)cccc12 (as salt: hydrochloride) [Example 28, 7-(2-morpholin-4-ylethyl)-3-(phenylsulfonyl)-1H-indole]
187 to 188 °C | CNCCc1cccc2c(S(=O)(=O)c3ccccc3)c[nH]c12 (as salt: hydrochloride) [Example 19, N-methyl-N-{2-[3-(phenylsulfonyl)-1H-indol-7-yl]ethyl}amine]
255 to 256 °C (dec.) | O=S(=O)(c1ccccc1)c1c[nH]c2c(CCNC3CCCC3)cccc12 (as salt: hydrochloride) [Example 23, N-{2-[3-(phenylsulfonyl)-1H-indol-7-yl]ethyl}cyclopentanamine]
291 to 293 °C (dec.) | CC(C)NCCc1cccc2c(S(=O)(=O)c3ccccc3)c[nH]c12 (as salt: hydrochloride) [Example 21, N-{2-[3-(phenylsulfonyl)-1H-indol-7-yl]ethyl}propan-2-amine]
230 to 232 °C | O=S(=O)(c1ccccc1)c1c[nH]c2ccc(CCN3CCCC3)cc12 (as salt: hydrochloride) [Example 9, 3-(phenylsulfonyl)-5-(2-pyrrolidin-1-ylethyl)-1H-indole]
217 °C | CCCNCCc1cccc2[nH]cc(S(=O)(=O)c3ccccc3)c12 (as salt: hydrochloride) [Example 34, N-{2-[3-(phenylsulfonyl)-1H-indol-4-yl]ethyl}-N-propylamine]
272 °C | O=S(=O)(c1ccccc1)c1c[nH]c2ccc(CCN3CCCCC3)cc12 (as salt: hydrochloride) [Example 10, 3-(phenylsulfonyl)-5-(2-piperidin-1-ylethyl)-1H-indole]
252 °C | O=S(=O)(c1ccccc1)c1c[nH]c2ccc(CCNC3CCCC3)cc12 (as salt: hydrochloride) [Example 5, N-{2-[3-(phenylsulfonyl)-1H-indol-5-yl]ethyl}cyclopentanamine]
145 to 150 °C | O=S(=O)(c1ccccc1)c1c[nH]c2cccc(CCN3CCCC3)c12 (as salt: hydrochloride) [Example 43, 3-(phenylsulfonyl)-4-(2-pyrrolidin-1-ylethyl)-1H-indole]
132 to 140 °C | CN(CCc1cccc2[nH]cc(S(=O)(=O)c3ccccc3)c12)C1CCCCC1 (as salt: hydrochloride) [Example 41, N-cyclohexyl-N-methyl-N-{2-[3-(phenylsulfonyl)-1H-indol-4-yl]ethyl}amine]
118 to 120 °C | CN(C)CCc1ccc2c(S(=O)(=O)c3ccccc3)c[nH]c2c1 (as salt: hydrochloride) [Example 86, N,N-dimethyl-N-{2-[3-(phenylsulfonyl)-1H-indol-6-yl]ethyl}amine]
122 to 126 °C | CN(C)CCc1cccc2[nH]cc(S(=O)(=O)c3ccccc3)c12 (as salt: hydrochloride) [Example 31, N,N-dimethyl-N-{2-[3-(phenylsulfonyl)-1H-indol-4-yl]ethyl}amine]
250 to 252 °C (dec.) | O=S(=O)(c1ccccc1)c1c[nH]c2c(CCN3CCCC3)cccc12 (as salt: hydrochloride) [Example 26, 3-(phenylsulfonyl)-7-(2-pyrrolidin-1-ylethyl)-1H-indole]
231 to 233 °C | O=S(=O)(c1ccccc1)c1c[nH]c2c(CCN3CCCCC3)cccc12 (as salt: hydrochloride) [Example 27, 3-(phenylsulfonyl)-7-(2-piperidin-1-ylethyl)-1H-indole]
193 to 195 °C | CCN(CC)CCc1ccc2[nH]cc(S(=O)(=O)c3ccccc3)c2c1 (as salt: hydrochloride) [Example 8, N,N-diethyl-N-{2-[3-(phenylsulfonyl)-1H-indol-5-yl]ethyl}amine]

Compound | melting point
CC(C)NCCc1ccc2[nH]cc(S(=O)(=O)c3ccccc3)c2c1 (as salt: hydrochloride) [Example 3, N-{2-[3-(phenylsulfonyl)-1H-indol-5-yl]ethyl}propan-2-amine] | 263 °C
CCCNCCc1ccc2[nH]cc(S(=O)(=O)c3ccccc3)c2c1 (as salt: hydrochloride) [Example 2, N-{2-[3-(phenylsulfonyl)-1H-indol-5-yl]ethyl}-N-propylamine] | 189 to 192 °C
CCN(CC)CCc1cccc2[nH]cc(S(=O)(=O)c3ccccc3)c12 (as salt: hydrochloride) [Example 42, N,N-diethyl-N-{2-[3-(phenylsulfonyl)-1H-indol-4-yl]ethyl}amine] | 77 to 83 °C
O=S(=O)(c1ccccc1)c1c[nH]c2cccc(CCNCC3CCCO3)c12 (stereo not shown) (as salt: hydrochloride) [Example 51, N-{2-[3-(phenylsulfonyl)-1H-indol-4-yl]ethyl}-N-((tetrahydrofur-2-yl)methyl)amine] | 110 to 115 °C
NCCc1ccc2[nH]cc(S(=O)(=O)c3ccccc3)c2c1 (as salt: hydrochloride) [Example 12, {2-[3-(phenylsulfonyl)-1H-indol-5-yl]ethyl}amine] | 200 °C
NCCc1cccc2[nH]cc(S(=O)(=O)c3ccccc3)c12 (as salt: hydrochloride) [Example 61, {2-[3-(phenylsulfonyl)-1H-indol-4-yl]ethyl}amine] | 130 to 134 °C
CCN(C)CCc1cccc2[nH]cc(S(=O)(=O)c3ccccc3)c12 (as salt: hydrochloride) [Example 40, N-ethyl-N-methyl-N-{2-[3-(phenylsulfonyl)-1H-indol-4-yl]ethyl}amine] | 92 to 98 °C
O=S(=O)(c1ccccc1)c1c[nH]c2cccc(CCN3CCCCC3)c12 (as salt: hydrochloride) [Example 44, 3-(phenylsulfonyl)-4-(2-piperidin-1-ylethyl)-1H-indole] | 200 to 205 °C
CC(C)CNCCc1cccc2[nH]cc(S(=O)(=O)c3ccccc3)c12 (as salt: hydrochloride) [Example 48, N-isobutyl-N-{2-[3-(phenylsulfonyl)-1H-indol-4-yl]ethyl}amine] | 220 °C
O=S(=O)(c1ccccc1)c1c[nH]c2cccc(CCNC3CCCCC3)c12 (as salt: hydrochloride) [Example 39, N-{2-[3-(phenylsulfonyl)-1H-indol-4-yl]ethyl}cyclohexanamine] | 241 °C
